Experimental data reported in patent US11666657B2, “Protein-drug conjugates and their use in the treatment of cancers” (UNIVERSITE DE STRASBOURG, priority 2017, dated 2023).
pIC50: −log10 of the molar value. “And” between values parts separate entries of the source, which are not always exact repeats. Equal entries are not always repeated.

Columns and labels:
HER2+ SK-BR-3 cells = experiment: In vitro efficacy on cell viability (CellTiter 96 AQueous One Solution Cell Proliferation Assay), HER2+ SK-BR-3; format: cell-based; details: 96 hrs treatment
Protocol: Antiproliferative activity of the ADCs according to this invention was evaluated on two cell lines and compared with that of the commercial ADC Kadcyla® (T-DM1).
HER2^+ SK-BR-3 and HER2^− MDA-MB-231 cell lines were grown in DMEM—high glucose (4,500 mg/L) supplemented with 10% fetal calf serum, Penicillin (200 U/mL)-Streptomycin (200 μg/mL) and L-glutamin (4 mM) (all from Sigma Aldrich, St Louis, Mo., USA). The effects of the payloads and ADCs on these cell lines were assessed using CellTiter 96® AQueous One Solution Cell Proliferation Assay (Promega, Madison, Wis., USA). The cytotoxic agent MMAE was used as a positive control of cell death and every condition was performed as triplicates. SKBR-3 cells were plated in 96-well plates at 3,000 cells/well for ADC tests and at 5,000 cells/well for payload tests, in 100 μL medium. MDA-MB231 cells were plated in 96-well plates at 15,000 cells/well, in 100 μL medium. The cells were allowed to adhere for 24 hrs at 37° C. in a humidified atmosphere of 5% CO2. Medium was then removed and replaced by payloads, ADCs, or MMAE, at different concentrations in fresh medium. […] Absorbance was measured at 515 nm using a 96-well plate reader (Flx-Xenius XM, Safas, Monaco), and to estimate the percentage of viable cells according to each treatment, the negative controls were considered as 100% viability. […]

[1] = test system: BT-474 ductal carcinoma tumors; experiment: In vivo anti-tumour efficacy in nude mice bearing subcutaneous BT-474 tumors; set-up: species or system Balb/c nude mice; details: single i.v. injection 1 mg/kg, BT-474 tumours in nude mice, versus control group
Protocol: In vivo therapeutic efficacy of the ADCs of this invention was evaluated in nude mice bearing subcutaneous BT-474 tumors.
Twenty (20) 6 to 8 week-old Balb/c nude (CByJ.Cg-Foxn1nu/J) females (Charles River Laboratories, L'Arbresles, France) were implanted with BT-474 ductal carcinoma cells (2×10^7) suspended in 200 μL RPMI 1640 medium (Sigma Aldrich) containing matrigel (50:50, v:v, BD Biosciences, France). The injection was performed subcutaneously in the right flank. One day prior implant, the animals were gamma irradiated (2 Gy, ^60Co). The cell transplant was considered as day 0 (D0). Once tumours reached a volume of 200-300 mm^3, mice were randomized according to their individual tumour volume into four distinct groups. The variance of mouse distribution within the groups was analysed to confirm the homogeneity of the groups.
Animal viability, behaviour and well-being were recorded daily; body weight was measured twice a week; and tumour volume was assessed twice a week with a calliper. The volume of the tumour was estimated formula as follow: volume=(width^2×length)/2.
Relative tumour volumes (RTV) were calculated according to the following formula:
Specifically, a principal component analysis (PCA) was carried out using XL Stat software (Addinsoft, Paris, France) in order to compare antitumour activity of T-DM1 and T-APN-Gal-MMAE. […]

## trastuzumab emtansine [T-DM1]
HER2+ SK-BR-3 cells
  pIC50: 10.48 and 10.47
[1]
  effect on tumour growth: not statistically significant
